Results from patent publication US20250352653A1, “NEURON TARGETED 2-DEOXYGLUCOSE DENDRIMER FOR IMAGING AND TREATMENT OF NEUROLOGICAL DISEASES” (Washington State University, priority 2024, published 2025).

Experiments:
[1] = free drug; cited from earlier work
Water solubility = type: physicochemical; conditions: Rosi and its 2DG-D conjugate
EOC 20 microglial cells = experiment: MTT cytocompatibility, EOC 20; type: cell-based; conditions: all tested concentrations, 24 h
Method: (§1) Cytocompatibility studies were carried out using MTT assay as described in our previous work. […] After this, all the treated cells were incubated with MTT for 3 h till the purple-colored formazan crystals appeared. For dissolving these crystals, cell culture grade DMSO was added to each of the wells and incubated for 15 min. Finally, the absorbance was recorded at 570 nm using Synergy H1 hybrid multi-mode microplate. The percentage cytocompatibility was calculated using equation 2. All the measurements were done in triplicates with proper controls.

CATH.a cells [2] = experiment: Annexin V/propidium iodide assay; type: cell-based; conditions: 250 μg/mL
Method: Apoptosis/necrosis was assessed in CATH.a cells using the FITC ApoScreen® Annexin V Apoptosis Kit. Cells were pre-treated with LPS (1 μg/mL) and H2O2 (100 μM) for 6 hours to mimic TBI-like conditions, followed by 2DG-D-Rosi treatment for 24 hours at 37° C., 5% CO2. After incubation, cells were harvested, washed twice with cold PBS, and resuspended in 100 μL of 1× Annexin Binding Buffer. Staining was performed with 10 μL Annexin V-FITC and 10 μL Propidium Iodide (PI) for 15 minutes at 2-8° C. in the dark, followed by dilution with 380 μL 1× Annexin Binding Buffer. Samples were analyzed on an Attune NxT® Flow Cytometer using BL-1 (530/30 nm) for Annexin V-FITC and YL-1 (585/16 nm) for PI. Controls included unstained, Annexin V-only, and PI-only samples. Density plots were generated to classify viable, early apoptotic, necrotic, and late apoptotic/necrotic cells. The experiment was performed in triplicate (n=3), and data was analyzed using GraphPad Prism® with statistical significance determined by a two-tailed t-test.

[3] = tested on: human umbilical vein endothelial cells (HUVECs); experiment: MTT cytocompatibility, HUVEC; type: cell-based; conditions: all tested concentrations, 24 h
Method: as §1

PPARγ = PPARγ expression by flow cytometry and immunofluorescence; type: cell-based; conditions: for PPARγ expression (confocal, ImageJ): LPS:H2O2 group 1-fold
Method: For flow cytometry, 1×10^5 cells per sample were fixed in 4% PFA, permeabilized with 0.2% Triton® X-100, blocked with 3% BSA, and incubated overnight at 4° C. with an anti-PPARγ antibody.
For immunofluorescence, 5×10^4 cells per well were grown on poly-L-lysine-coated coverslips, treated, washed, and blocked with 3% BSA, followed by overnight incubation with an anti-PPARγ antibody at 4° C. on a 3D shaker. […] Imaging was performed using a […] SP5 Confocal Microscope (20× water immersion lens). The experiment was conducted in triplicate (n=3), and statistical significance was determined using GraphPad Prism® with a two-tailed t-test.

Caspase-3/7 = Caspase-3/7 activity assay; type: cell-based; conditions: for caspase activity (confocal, ImageJ): control 100%
Method: For flow cytometry, 1×10^5lls per sample were incubated with Pheno Vue® 505 caspase-3/7 stain in fresh medium for 30 minutes, washed with PBS, and analyzed on an Attune NxT® Flow Cytometer using BL-1 (530/30 nm) for caspase activation detection. For confocal microscopy, 2×10^5 cells per well were seeded on poly-L-lysine-coated coverslips, stained with caspase-3/7 reagent, fixed in 4% PFA, permeabilized with 0.1% Triton® X-100, and counterstained with DAPI. Coverslips were mounted with Vectashield Plus® antifade medium and imaged using a Leica SP-5 Confocal Microscope (20× water immersion lens). The experiment was conducted in triplicate (n=3), and statistical significance was determined using GraphPad Prism® with a two-tailed t-test.

CATH.a cells [4] = experiment: JC-1 mitochondrial membrane potential (MMP) assay; type: cell-based; conditions: for MFI of J-monomers (confocal): control ~141
Method: The JC-1 Mitochondrial Membrane Potential (MMP) Assay was used to assess 2DG-D-Rosi effects on CATH.a cells under TBI-like conditions via flow cytometry and confocal microscopy. Cells were pre-treated with LPS (1 μg/mL) and H2O2 (100 μM), followed by 2DG-D-Rosi treatment for 24 hours at 37° C., 5% CO2. After incubation, cells were stained with 2 μM JC-1 dye for 20 minutes at 37° C. in the dark. For flow cytometry, cells were analyzed on an Attune NxT® Flow Cytometer, with JC-1 monomers (green, depolarized mitochondria) detected in BL-1 (530/30 nm) and J-aggregates (red, polarized mitochondria) in YL-1 (585/16 nm). For confocal microscopy, cells were seeded on poly-L-lysine-coated coverslips, stained with JC-1, counterstained with DAPI, and imaged using a Leica SP-5 Confocal Microscope (20× water immersion magnification). The experiment was conducted in triplicate (n=3), and data were analyzed using GraphPad Prism® with statistical significance determined by a two-tailed t-test.

IL-6 = experiment: Quantitative IL-6 ELISA; type: cell-based; conditions: LPS:H2O2 induced CATH.a, control ~1-fold
Method: (§2) For determining the effect of 2DG-D-Rosi conjugates on the neuro-inflammation under in vitro conditions, the expression levels of tumor necrosis factor-alpha (TNF-α) and interleukin-6 (IL-6) were analyzed using an enzyme-linked immunosorbent assay (ELISA). The protocol was adapted from previously published literature with slight modifications. Briefly, CATH.a neurons (5×10^4 cells/well) were seeded into 96-well plates and cultured overnight. The cells were pre-treated with lipopolysaccharide (LPS; 1 μg/mL) and hydrogen peroxide (H2O2, 100 μM) and then incubated with 2DG-D-Rosi conjugates at varying concentrations (50, 100, and 250 μg/mL) for 24 hours at 37° C. in a CO2 incubator. Following the treatment, the consumed culture media was collected and centrifuged at 12,000×g for 10 minutes to remove cellular debris. A 50 μL aliquot of the supernatant was added to ELISA plates pre-coated with primary antibodies for TNF-α and IL-6, respectively, and incubated for approximately 2 h. The cytokine concentrations (pg/mL) were determined using standard calibration curves provided in the ELISA kit, adhering to the manufacturer's instructions. All experiments were performed in triplicates, with appropriate controls.

TNF-α = experiment: Quantitative TNF-α ELISA; type: cell-based; conditions: LPS:H2O2 induced CATH.a, control 1-fold
Method: as §2, with “The cells were pre-treated with lipopolysaccharide (LPS; 1 μg/mL) and hydrogen peroxide (H2O2, 100 μM) and then incubated with 2DG-D-Rosi conjugates at varying concentrations (50, 100, and 250 μg/mL) for 24 hours at 37° C. in a CO2 incubator.” left out

CATH.a neurons = experiment: MTT cytocompatibility, CATH.a; type: cell-based; conditions: all tested concentrations, 24 h
Method: as §1

In the case of `CCc1ccc(CCOc2ccc(CC3SC(=O)NC3=O)cc2)nc1` (stereo not drawn) [Pio, pioglitazone], the “water solubility of free Pio” value [1] is given as 4.42 µg/mL.
For `CN(CCOc1ccc(CC2SC(=O)NC2=O)cc1)c1ccccn1` (stereo not drawn) [Rosi, rosiglitazone], the “solubility in water” value (Water solubility) was “sparingly soluble”, the “cytotoxicity (MTT)” value (EOC 20 microglial cells) was “No toxic effects” and the necrosis (CATH.a cells [2]; LPS:H2O2 treated CATH.a (~31.07%)) was about 1.67%. For the same compound, the apoptosis (CATH.a cells [2]; LPS:H2O2 treated CATH.a) was about 54.6%, the “cytotoxicity (MTT)” value [3] was “No toxic effects” and the “PPARγ expression (confocal, ImageJ)” value (PPARγ; 50 μg/mL) was 1.82 fold. For the same compound, the “PPARγ expression (confocal, ImageJ)” value (PPARγ; 100 μg/mL) was 1.79 fold, the “PPARγ expression (confocal, ImageJ)” value (PPARγ; 250 μg/mL) was 1.9 fold and the “PPARγ expression MFI (flow cytometry)” value (PPARγ; LPS+H2O2 ~206, untreated ~112) was about 556. For the same compound, the “caspase activity (confocal, ImageJ)” value (Caspase-3/7; 50 μg/mL) was about 75%, the “caspase activity (confocal, ImageJ)” value (Caspase-3/7; 100 μg/mL) was about 63% and the “caspase activity (confocal, ImageJ)” value (Caspase-3/7; 250 μg/mL) was about 68%. The “lowering of caspase activity” value (Caspase-3/7; free Rosi vs LPS:H2O2, flow cytometry) was about 70%, the “MFI of J-monomers (confocal)” value (CATH.a cells [4]; 50 μg/mL) was about 89 and the “MFI of J-monomers (confocal)” value (CATH.a cells [4]; 100 μg/mL) was 74. The “MFI of J-aggregates (red fluorescence)” value (CATH.a cells [4]; 250 μg/mL, LPS:H2O2 group ~2.7) was about 78.1, the “MFI of J-monomers (confocal)” value (CATH.a cells [4]; 250 μg/mL) was 72 and the “healthy mitochondria, flow cytometry” value (CATH.a cells [4]; LPS+H2O2 ~0.24%, 2DG-D and Rosi at 250) was about 21.54%. The “depolarized mitochondria (J-Mon+/J-Agg-), flow cytometry” value (CATH.a cells [4]; LPS+H2O2 ~95.13%, 2DG-D and Rosi at 250) was about 69.73%, the IL-6 levels (IL-6; 50 μg/mL) was 0.88 fold and the IL-6 levels (IL-6; 100 μg/mL) was 0.86 fold. It also gave an IL-6 levels (IL-6; 250 μg/mL) of 0.67 fold, a TNF-α levels (TNF-α; 100 μg/mL) of 0.91 fold and a TNF-α levels (TNF-α; 250 μg/mL) of 0.85 fold. The TNF-α levels (TNF-α; 500 μg/mL) was 0.77 fold and the “cytotoxicity (MTT)” value (CATH.a neurons) was “No toxic effects”.
